Target: CatSper (Homo sapiens, UniProt Q7RTX7+Q86XQ3+Q8NEC5+Q96P56)
Experiment: whole-cell patch clamp of human sperm
Assay type: cell-based

CatSper, sequence (Q96P56 whole entry): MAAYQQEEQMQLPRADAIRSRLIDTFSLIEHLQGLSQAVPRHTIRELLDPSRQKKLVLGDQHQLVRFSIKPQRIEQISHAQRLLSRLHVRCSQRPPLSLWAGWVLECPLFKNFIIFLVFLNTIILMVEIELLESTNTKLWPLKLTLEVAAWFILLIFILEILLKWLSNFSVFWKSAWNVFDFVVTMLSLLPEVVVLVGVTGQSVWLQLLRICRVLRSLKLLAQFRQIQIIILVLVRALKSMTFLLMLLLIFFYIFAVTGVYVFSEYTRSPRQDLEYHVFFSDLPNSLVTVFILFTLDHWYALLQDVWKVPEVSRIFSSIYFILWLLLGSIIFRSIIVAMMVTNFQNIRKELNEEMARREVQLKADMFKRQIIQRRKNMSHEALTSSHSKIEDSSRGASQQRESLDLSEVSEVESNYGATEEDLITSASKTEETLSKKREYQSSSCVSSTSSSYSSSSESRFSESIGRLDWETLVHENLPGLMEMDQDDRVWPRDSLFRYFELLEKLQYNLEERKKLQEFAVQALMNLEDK
CatSper, sequence (Q8NEC5 whole entry): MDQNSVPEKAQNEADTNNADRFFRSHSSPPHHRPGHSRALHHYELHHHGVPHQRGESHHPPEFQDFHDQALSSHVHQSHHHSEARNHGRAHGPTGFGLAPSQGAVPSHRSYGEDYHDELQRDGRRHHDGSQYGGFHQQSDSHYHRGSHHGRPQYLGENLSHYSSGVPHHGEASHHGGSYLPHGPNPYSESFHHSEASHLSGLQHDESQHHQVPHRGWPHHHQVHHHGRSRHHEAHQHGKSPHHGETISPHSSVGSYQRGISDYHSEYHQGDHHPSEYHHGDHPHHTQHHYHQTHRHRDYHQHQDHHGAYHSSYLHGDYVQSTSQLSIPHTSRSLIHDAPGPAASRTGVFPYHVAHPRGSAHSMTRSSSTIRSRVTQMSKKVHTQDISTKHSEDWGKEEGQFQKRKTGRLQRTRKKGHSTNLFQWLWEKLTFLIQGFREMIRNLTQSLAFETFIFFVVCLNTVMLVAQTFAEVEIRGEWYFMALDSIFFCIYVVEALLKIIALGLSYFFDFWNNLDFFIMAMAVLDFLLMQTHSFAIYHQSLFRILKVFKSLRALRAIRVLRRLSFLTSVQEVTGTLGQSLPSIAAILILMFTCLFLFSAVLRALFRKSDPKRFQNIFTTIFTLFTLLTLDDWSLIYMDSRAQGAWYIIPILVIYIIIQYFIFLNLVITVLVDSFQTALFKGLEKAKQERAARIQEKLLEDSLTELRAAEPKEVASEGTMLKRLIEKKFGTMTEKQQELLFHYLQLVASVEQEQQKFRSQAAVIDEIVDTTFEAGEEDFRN
CatSper, sequence (Q86XQ3 whole entry): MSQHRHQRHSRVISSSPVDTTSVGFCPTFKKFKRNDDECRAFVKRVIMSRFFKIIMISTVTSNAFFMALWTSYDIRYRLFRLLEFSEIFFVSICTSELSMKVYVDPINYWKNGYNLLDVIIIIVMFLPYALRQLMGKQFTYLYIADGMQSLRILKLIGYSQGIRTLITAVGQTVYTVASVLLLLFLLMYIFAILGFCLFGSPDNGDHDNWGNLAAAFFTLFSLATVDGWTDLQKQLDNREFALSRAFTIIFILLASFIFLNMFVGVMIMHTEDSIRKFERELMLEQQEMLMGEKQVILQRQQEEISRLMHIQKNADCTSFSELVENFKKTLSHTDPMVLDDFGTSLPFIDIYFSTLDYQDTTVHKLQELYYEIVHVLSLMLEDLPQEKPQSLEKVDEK
CatSper, sequence (Q7RTX7 whole entry): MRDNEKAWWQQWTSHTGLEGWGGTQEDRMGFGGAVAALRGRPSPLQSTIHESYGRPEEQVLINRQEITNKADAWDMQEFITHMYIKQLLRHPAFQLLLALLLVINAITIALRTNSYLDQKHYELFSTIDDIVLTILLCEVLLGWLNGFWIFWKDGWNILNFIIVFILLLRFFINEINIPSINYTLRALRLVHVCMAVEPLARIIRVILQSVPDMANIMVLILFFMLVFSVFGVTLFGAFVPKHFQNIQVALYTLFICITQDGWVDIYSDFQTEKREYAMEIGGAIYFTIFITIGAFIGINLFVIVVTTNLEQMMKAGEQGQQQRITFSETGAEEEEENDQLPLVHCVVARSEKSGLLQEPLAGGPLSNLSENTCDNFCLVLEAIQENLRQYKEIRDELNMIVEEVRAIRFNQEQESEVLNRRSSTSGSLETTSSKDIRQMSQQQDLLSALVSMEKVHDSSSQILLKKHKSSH

Work on `CN[C@H]1CC[C@@H](c2ccc(Cl)c(Cl)c2)c2ccccc21` [Sertraline] yielded an IC50 of 4.62 ± 1.18 µM.
